In US8148361B2, “Kinase inhibitors” (Bristol-Myers Squibb Company, priority 2006, dated 2012) one finds IC50 data, which are given here for 6 compounds.

VEGFR-2, sequence (P35968 20-1356): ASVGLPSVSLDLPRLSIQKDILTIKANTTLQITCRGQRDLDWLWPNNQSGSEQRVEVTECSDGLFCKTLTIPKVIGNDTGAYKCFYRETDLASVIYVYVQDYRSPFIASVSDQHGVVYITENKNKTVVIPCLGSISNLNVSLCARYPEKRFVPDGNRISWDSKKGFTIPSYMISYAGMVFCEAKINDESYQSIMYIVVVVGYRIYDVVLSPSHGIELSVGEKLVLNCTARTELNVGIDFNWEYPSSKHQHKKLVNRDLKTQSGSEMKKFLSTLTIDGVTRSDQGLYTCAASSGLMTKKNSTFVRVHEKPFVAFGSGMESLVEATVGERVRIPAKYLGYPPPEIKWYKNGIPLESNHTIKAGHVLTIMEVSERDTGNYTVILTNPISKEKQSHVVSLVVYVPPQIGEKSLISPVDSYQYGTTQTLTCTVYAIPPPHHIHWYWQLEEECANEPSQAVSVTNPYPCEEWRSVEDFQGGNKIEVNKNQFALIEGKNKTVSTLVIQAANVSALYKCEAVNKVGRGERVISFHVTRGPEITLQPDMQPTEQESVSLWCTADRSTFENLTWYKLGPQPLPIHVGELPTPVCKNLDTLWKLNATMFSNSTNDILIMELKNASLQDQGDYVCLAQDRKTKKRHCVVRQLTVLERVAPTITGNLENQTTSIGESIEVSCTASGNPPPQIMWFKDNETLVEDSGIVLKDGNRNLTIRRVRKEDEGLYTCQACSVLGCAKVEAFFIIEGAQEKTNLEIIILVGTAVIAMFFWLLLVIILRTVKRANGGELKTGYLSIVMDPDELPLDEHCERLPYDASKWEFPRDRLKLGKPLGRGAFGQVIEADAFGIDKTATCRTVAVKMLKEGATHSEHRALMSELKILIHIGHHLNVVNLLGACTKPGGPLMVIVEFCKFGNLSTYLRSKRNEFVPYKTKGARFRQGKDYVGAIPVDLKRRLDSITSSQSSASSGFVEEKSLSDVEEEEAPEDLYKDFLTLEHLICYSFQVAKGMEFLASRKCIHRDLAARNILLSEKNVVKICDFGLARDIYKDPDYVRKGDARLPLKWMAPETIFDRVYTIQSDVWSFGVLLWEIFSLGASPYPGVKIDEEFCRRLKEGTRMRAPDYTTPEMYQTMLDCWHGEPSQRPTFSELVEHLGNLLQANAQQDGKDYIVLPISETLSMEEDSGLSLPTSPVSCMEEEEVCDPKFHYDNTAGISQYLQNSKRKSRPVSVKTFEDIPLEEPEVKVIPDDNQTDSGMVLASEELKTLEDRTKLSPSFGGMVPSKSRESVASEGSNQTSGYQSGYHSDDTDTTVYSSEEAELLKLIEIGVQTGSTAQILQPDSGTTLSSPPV
T1 sequence (P08069 31-1367): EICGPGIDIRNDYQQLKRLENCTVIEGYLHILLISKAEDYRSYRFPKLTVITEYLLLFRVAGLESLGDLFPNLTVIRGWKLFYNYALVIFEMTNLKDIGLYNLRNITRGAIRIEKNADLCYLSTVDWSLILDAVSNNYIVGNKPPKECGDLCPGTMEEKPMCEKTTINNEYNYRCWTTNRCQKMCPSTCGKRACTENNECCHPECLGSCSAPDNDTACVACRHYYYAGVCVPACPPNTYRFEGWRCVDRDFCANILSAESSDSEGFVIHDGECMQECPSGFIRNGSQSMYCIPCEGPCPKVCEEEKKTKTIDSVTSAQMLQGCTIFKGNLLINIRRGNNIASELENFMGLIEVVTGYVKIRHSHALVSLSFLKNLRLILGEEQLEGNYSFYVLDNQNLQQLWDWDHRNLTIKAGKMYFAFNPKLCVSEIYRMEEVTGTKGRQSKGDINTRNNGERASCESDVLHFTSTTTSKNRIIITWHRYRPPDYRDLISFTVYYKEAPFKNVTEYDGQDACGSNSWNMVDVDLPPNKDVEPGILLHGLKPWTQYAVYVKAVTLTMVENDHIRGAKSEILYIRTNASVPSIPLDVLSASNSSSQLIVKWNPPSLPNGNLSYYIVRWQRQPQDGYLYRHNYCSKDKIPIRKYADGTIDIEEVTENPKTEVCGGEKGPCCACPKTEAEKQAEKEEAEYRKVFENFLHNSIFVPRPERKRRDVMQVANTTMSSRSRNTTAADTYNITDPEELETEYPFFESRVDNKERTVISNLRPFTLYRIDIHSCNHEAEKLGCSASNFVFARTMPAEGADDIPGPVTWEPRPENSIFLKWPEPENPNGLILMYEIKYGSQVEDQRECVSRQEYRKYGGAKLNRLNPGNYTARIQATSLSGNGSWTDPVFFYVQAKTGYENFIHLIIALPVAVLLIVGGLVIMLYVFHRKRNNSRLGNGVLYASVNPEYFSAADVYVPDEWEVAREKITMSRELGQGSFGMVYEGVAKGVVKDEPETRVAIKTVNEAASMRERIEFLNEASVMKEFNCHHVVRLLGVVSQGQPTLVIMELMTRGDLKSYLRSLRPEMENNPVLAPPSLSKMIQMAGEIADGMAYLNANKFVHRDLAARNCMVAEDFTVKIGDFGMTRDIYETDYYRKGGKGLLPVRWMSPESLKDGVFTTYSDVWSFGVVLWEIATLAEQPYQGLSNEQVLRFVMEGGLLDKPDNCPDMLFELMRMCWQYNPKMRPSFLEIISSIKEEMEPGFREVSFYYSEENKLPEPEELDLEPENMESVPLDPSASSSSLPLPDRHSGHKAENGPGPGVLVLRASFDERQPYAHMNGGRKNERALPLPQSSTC

One assay has as its target T1, IGF-1 receptor tyrosine kinase (Homo sapiens, UniProt P08069).
T1 construct: host or cells: baculovirus expression system
In words: IGF-receptor tyrosine kinase assay. The class given is biochemical. As to conditions: poly(Glu/Tyr) substrate, 25 μM ATP, baculovirus expressed enzyme; read-out: IGF1R IC50. As to the method: 3. IGF-Receptor Tyrosine Kinase Assay
The IGF-1 receptor tyrosine kinase was assayed using the synthetic polymer poly(Glu/Tyr) (Sigma Chemicals) as a phosphoacceptor substrate. Each reaction mixture consisted of a total volume of 50 ul and contained 125 ng of baculovirus expressed enzyme, 2.5 μg of poly(Glu/Tyr), 25 μM of ATP, and 0.1 μCi of [γ-^33P]ATP. The mixtures also contained 20 mM MOPS, pH 7.0, 5 mM MnCl2, 0.5 mM […], and 0.1 mg/ml bovine serum albumin. The reaction mixtures were incubated at 30° C. for 45 minutes and kinase activity was determined by quantitation of the amount of radioactive phosphate transferred to the poly(Glu/Tyr) substrate. Incorporation was measured by the addition of cold trichloroacetic acid (TCA) precipitation of the proteins which were collected onto GF/C unifilter plates (Packard Instrument Co., Meriden, Conn.) using a Filtermate universal harvester and the filters were quantitated using a TopCount 96-well liquid scintillation counter (Packard Instrument Co., Meriden, Conn.). Compounds were dissolved in dimethyl sulfoxide to a concentration of 10 mM and were evaluated at six concentrations, each in triplicate.
By IC50 is commonly meant the concentration needed to halve the response being measured. On to `O=C(NC1CN(S(=O)(=O)c2ccc(F)cc2)C1)c1cccc(Sc2cnc3[nH]c(-c4ccccc4)cc3c2)c1` [Example 13, N-(1-(4-fluorophenylsulfonyl)azetidin-3-yl)-3-(2-phenyl-1H-pyrrolo[2,3-b]pyridin-5-ylthio)benzamide], for which the IC50 was 199 nM.

The target in a further assay is VEGFR-2 (Homo sapiens, UniProt P35968). In words: VEGFR-2 kinase assay. Type of assay: biochemical. The settings on record: poly glu/tyr substrate, 33P-ATP; read-out: VEGFR2 IC50. As to the method:
1. VEGFR-2 and FGFR-1 Kinase Assays:
Incubation mixtures employed for VEGFR-2 or FGFR-1 assay contain the synthetic substrate poly glu/tyr, (4:1), ATP, ATP-γ-^33P and buffer containing Mn^++ and/or Mg^++, DTT, BSA, and Tris buffer. The reaction is initiated by addition of enzyme and after 60 minutes at room temperature is terminated by the addition of 30% TCA to a final concentration of 15% TCA. Inhibitors are brought to 10 mM in 100% DMSO. Assays are prepared in a 96 well format in quadruplicate. Compounds are diluted 1:500 in 100% DMSO and then 1:10 in water for a final DMSO concentration of 10%. 10 μL are added to rows B-H in a 96 well format of 10% DMSO. 20 μl of compound is added to row A at a concentration 5 fold higher than running conditions. Ten μL are transferred to each row followed by six serial dilutions with mixing, and at row F 10 μL are discarded. Row G is a control with no compound and row H is no compound and no enzyme control. Enzyme and substrate are delivered using a Tomtec Quadra station.
Plates are covered with sticky plate tops, incubated at 27° C. for 60 minutes, and then acid precipitated with TCA for 20 minutes on ice. The precipitate is transferred to UniFilter-96, GF/C microplates using either a Tomtec or Packard FilterMate harvester. Activity is determined by quantitating the incorporated radioactivity using a Packard TopCount Microplate Scintillation Counter following the addition of Microscint-20 cocktail into each dried well of the UniFilter microplates.
`O=C(NC1CC1)c1ccc(F)c(NCc2cnc3[nH]c(-c4ccccc4)cc3c2)c1` [Example 1, N-Cyclopropyl-4-fluoro-3-{(2-phenyl-1H-pyrrolo[2,3-b]pyridin-5-yl)methylamino}benzamide]: the IC50 stood at 16 nM.

Turning to `O=C(NC1CC1)c1cc(NCc2cnc3[nH]c(-c4ccccc4)cc3c2)c(F)cc1F` [Example 2, N-cyclopropyl-2,4-difluoro-5-((2-phenyl-1H-pyrrolo[2,3-b]pyridin-5-yl)methylamino)benzamide], the IC50 turned out to be 64 nM.

For the compound `O=C(NC1CC1)c1ccc(F)c(CNc2cnc3[nH]c(-c4ccccc4)cc3c2)c1` [Example 3, N-cyclopropyl-4-fluoro-3-((2-phenyl-1H-pyrrolo[2,3-b]pyridin-5-ylamino)methyl)benzamide], the IC50 came to 103 nM.

For `O=C(NC1CC1)c1ccc(F)c(NCc2cnc3[nH]c(C4CC4)cc3c2)c1` [Example 4, N-cyclopropyl-3-((2-cyclopropyl-1H-pyrrolo[2,3-b]pyridin-5-yl)methylamino)-4-fluorobenzamide], the concentration for half-maximal inhibition (IC50) came out at 146 nM.

For the compound `O=C(NC1CC1)c1ccc(F)c(NCc2cnc3[nH]c(-c4cccnc4)cc3c2)c1` [Example 5, N-cyclopropyl-4-fluoro-3-((2-(pyridin-3-yl)-1H-pyrrolo[2,3-b]pyridin-5-yl)methylamino)benzamide], the IC50 was 17 nM.
